Experimental data reported in patent publication US9498476B2, “Crystalline form of 6-[(4S)-2-methyl-4-(2-naphthyl)-1,2,3,4-tetrahydroisoquinolin-7-yl]pyridazin-3-amine” (Bristol-Myers Squibb Company, priority 2008, dated 2016).

Legend:
Format in all cases: physicochemical
[1] = Solubility profile (USP definition) in solvents
[2] = Distribution coefficient (Log Do/b); conditions: pH 6.5
[3] = pH-Solubility profile (aqueous solubility)

Distribution coefficient Log Do/b [2]: 3.10
Aqueous solubility (in words) [3]: high aqueous solubility
SMILES: CN1Cc2cc(-c3ccc(N)nn3)ccc2[C@H](c2ccc3ccccc3c2)C1 [Form N-1, 6-[(4S)-1,2,3,4-tetrahydro-2-methyl-4-(2-naphthalenyl)-7-isoquinolinyl]-3-pyridazinamine]
Solubility profile (USP definition) ([1]; acetone): slightly soluble: isopropanol, acetone, ethanol, methanol,
Solubility profile (USP definition) ([1]; acetonitrile): very slightly soluble: acetonitrile, ethyl acetate,
Solubility profile (USP definition) ([1]; dichloromethane): slightly soluble: isopropanol, acetone, ethanol, methanol,
Solubility profile (USP definition) ([1]; ethanol): slightly soluble: isopropanol, acetone, ethanol, methanol,
Solubility profile (USP definition) ([1]; ethyl acetate): very slightly soluble: acetonitrile, ethyl acetate,
Solubility profile (USP definition) ([1]; isopropanol): slightly soluble: isopropanol, acetone, ethanol, methanol,
Solubility profile (USP definition) ([1]; methanol): slightly soluble: isopropanol, acetone, ethanol, methanol,
Solubility profile (USP definition) ([1]; n-butanol): very slightly soluble: acetonitrile, ethyl acetate,
Solubility profile (USP definition) ([1]; propylene glycol): slightly soluble: isopropanol, acetone, ethanol, methanol,
